# Results as given in ChEMBL document CHEMBL5634193, “Discovery of CVN293, a Brain Permeable KCNK13 (THIK-1) Inhibitor Suitable for Clinical Assessment” (ACS Med Chem Lett, 2024).
# Assays:
# [1] = molecular target: T1, Potassium channel subfamily K member 13 (Homo sapiens, UniProt Q9HB14); experiment: Inhibition of human KCNK13 transfected in HEK293 cells; format: cell-based
# T1 sequence (Q9HB14 whole entry): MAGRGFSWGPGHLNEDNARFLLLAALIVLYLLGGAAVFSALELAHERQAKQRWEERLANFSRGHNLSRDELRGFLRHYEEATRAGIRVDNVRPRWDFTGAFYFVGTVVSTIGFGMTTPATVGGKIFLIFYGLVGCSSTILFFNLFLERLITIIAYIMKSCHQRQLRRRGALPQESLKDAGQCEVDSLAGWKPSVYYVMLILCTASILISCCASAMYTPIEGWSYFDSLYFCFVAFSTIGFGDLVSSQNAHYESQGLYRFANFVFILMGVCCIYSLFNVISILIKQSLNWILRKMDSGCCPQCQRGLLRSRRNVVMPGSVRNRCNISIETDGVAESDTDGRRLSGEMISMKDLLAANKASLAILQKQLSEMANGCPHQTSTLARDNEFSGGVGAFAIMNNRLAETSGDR
# [2] = Protein binding in mouse brain assessed as unbound fraction by equilibrium dialysis; format: ADME, tissue-based
# [3] = Cmax in Beagle dog at 10 mg/kg, po; format: ADME, organism-based, Canis lupus familiaris; conditions: in vivo
# [4] = Tmax in Beagle dog at 10 mg/kg, po; format: ADME, organism-based, Canis lupus familiaris; conditions: in vivo
# [5] = Half life in Beagle dog at 10 mg/kg, po; format: ADME, organism-based, Canis lupus familiaris; conditions: in vivo
# [6] = Half life in Cynomolgus monkey at 1 mg/kg, iv; format: ADME, organism-based, Macaca fascicularis; conditions: in vivo
# [7] = Tmax in Cynomolgus monkey at 3 mg/kg, po; format: ADME, organism-based, Macaca fascicularis; conditions: in vivo
# [8] = molecular target: T1, Potassium channel subfamily K member 13; experiment: Inhibition of human KCNK13 transfected in HEK293 cells assessed as reduction in thallium influx incubated for 15 mins in dark by FLIPR assay; format: cell-based
# [9] = molecular target: T2, Potassium channel subfamily K member 13 (Homo sapiens) (UniProt Q9HB14); experiment: Inhibition of human KCNK13 transfected in HEK293 cells assessed as reduction in thallium influx incubated for 15 mins in dark by FLIPR assay relative to control; format: cell-based
# T2 sequence (whole entry): T1 sequence (Q9HB14 whole entry)
smiles,measurement,setting,value
Nc1nonc1-c1nc2cccc(F)c2n1Cc1cccnn1,IC50,[1],41 nM
same,fraction unbound,[2],0.136
same,Cmax,[3],241 ng/mL
same,Tmax,[4],1.25 h
same,half-life,[5],2.6 h
same,half-life,[6],1.1 h
same,Tmax,[7],1 h
same,IC50,[8],41 nM
same,Imax,[9],100%
